Source: patent publication US8318792B2, “Therapeutic agent for amyotrophic lateral sclerosis” (Nippon Medical School Foundation, priority 2006, dated 2012)

Columns and labels:
G1H-G93A transgenic mice [1] = experiment: Exercise tolerance test: rotarod test; assay type: in vivo, mouse; conditions: for Rotarod test score: 5 mg/kg oral daily from 80th day (before onset), score 0-3; for effect in rotarod test as compared to placebo group: 105th, 110th and 115th day, 5 mg/kg oral daily from 80th day after birth, Mann-Whitney's U test
Experimental: (§1) The following five kinds of exercise tolerance tests were conducted every fifth day from the 70th day after birth to evaluate the ability to exercise in the respective exercise tolerance tests. That is, the days for the exercise tolerance tests were every fifth days, such as the 70th day, 75th day, 80th day, 85th day and so on, after birth. The exercise tolerance tests were conducted throughout the survival period, and the post-mortem evaluation was based on the definitions of the following five kinds of exercise tolerance tests.
The apparatus used in the Rotarod test (Rota Rod Treadmill type 7600, Ugo Basile Co., Milano, Italy) is a rotating axle having a diameter of 3.6 cm, and this rotating axle is set up so as to have 16 revolution per minute (one rotation: 3.75 seconds). The period for which a mouse can remain on a rotating axle without falling is measured. The evaluation of the rotarod test for the mouse was performed based on the following criteria: Score 0=The time exceeds 60 seconds; Score 1=The time is more than 30 seconds and 60 seconds or less; Score 2=The time is more than 4 seconds and 30 seconds or less; and Score 3=The time is 4 seconds or less. The post-mortem evaluation of the rotarod test is defined as score 3.

G1H-G93A transgenic mice [2] = experiment: Exercise tolerance test: beam balance test; assay type: in vivo, mouse; conditions: 5 mg/kg oral daily from 80th day (before onset), score 0-2
Experimental: as §1
The apparatus used in the beam balance test is constructed by maintaining a wooden beam having a diameter of 1.5 cm horizontally, and installing platforms which serve as footholds, on the respective sides in a distance of 30 cm. A mouse is placed on the platform on one side, and the time taken by the mouse to cross over the beam which is 30 cm in length and to arrive at the platform on the opposite side is measured. The evaluation of the beam balance test for the mouse was performed based on the following criteria: Score 0=The time is 10 seconds or less; Score 1=The time is more than 10 seconds to 15 seconds; and Score 2=The time is more than 15 seconds, or the mouse falls down. The post-mortem evaluation of the beam balance test is defined as score 2.

[3] = from the 125th day to 140th day after birth
[4] = from the 130th day to 140th day after birth

Compound	Rotarod test score (G1H-G93A transgenic mice [1]; 70th day after birth, 5 mg/kg)	Rotarod test score (G1H-G93A transgenic mice [1]; 75th day after birth, 5 mg/kg)	Rotarod test score (G1H-G93A transgenic mice [1]; 80th day after birth, 5 mg/kg)	Rotarod test score (G1H-G93A transgenic mice [1]; 85th day after birth, 5 mg/kg)	Rotarod test score (G1H-G93A transgenic mice [1]; 90th day after birth, 5 mg/kg)	Rotarod test score (G1H-G93A transgenic mice [1]; 95th day after birth, 5 mg/kg)	Rotarod test score (G1H-G93A transgenic mice [1]; 100th day after birth, 5 mg/kg)	Rotarod test score (G1H-G93A transgenic mice [1]; 105th day after birth, 5 mg/kg)	effect in rotarod test as compared to placebo group (G1H-G93A transgenic mice [1])	Rotarod test score (G1H-G93A transgenic mice [1]; 110th day after birth, 5 mg/kg)	Rotarod test score (G1H-G93A transgenic mice [1]; 115th day after birth, 5 mg/kg)	Rotarod test score (G1H-G93A transgenic mice [1]; 120th day after birth, 5 mg/kg)	Rotarod test score (G1H-G93A transgenic mice [1]; 130th day after birth)	Rotarod test score (G1H-G93A transgenic mice [1]; 135th day after birth)	Rotarod test score (G1H-G93A transgenic mice [1]; 140th day after birth)	Beam balance test score (G1H-G93A transgenic mice [2]; 70th day after birth, 5 mg/kg)	Beam balance test score (G1H-G93A transgenic mice [2]; 75th day after birth, 5 mg/kg)	Beam balance test score (G1H-G93A transgenic mice [2]; 80th day after birth, 5 mg/kg)	Beam balance test score (G1H-G93A transgenic mice [2]; 85th day after birth, 5 mg/kg)	Beam balance test score (G1H-G93A transgenic mice [2]; 90th day after birth, 5 mg/kg)	further results
Cc1nc(-c2ccc(OCC(C)C)c(C#N)c2)sc1C(=O)O [compound (c), 2-[3-cyano-4-(2-methylpropoxy)phenyl]-4-methyl-5-thiazolecarboxylic acid]	0.0±0.0	0.0±0.0	0.0±0.0	0.0±0.0	0.0±0.0	0.0±0.0	0.0±0.0	0.0±0.0	significant effects	0.4±0.8	1.3±1.3	2.5±0.5	3.0 ± 0.0	3.0 ± 0.0	3.0 ± 0.0	0.0±0.0	0.0±0.0	0.0±0.0	0.0±0.0	0.0±0.0	Rotarod test score (G1H-G93A transgenic mice [1]; 125th day after birth): 3.0 ± 0.0; Rotarod test score (G1H-G93A transgenic mice [1]; [3]): 3.0±0.0; Beam balance test score (G1H-G93A transgenic mice [2]; 95th day after birth, 5 mg/kg): 0.0±0.0; Beam balance test score (G1H-G93A transgenic mice [2]; 100th day after birth, 5 mg/kg): 0.0±0.0; Beam balance test score (G1H-G93A transgenic mice [2]; 105th day after birth, 5 mg/kg): 0.0±0.0; Beam balance test score (G1H-G93A transgenic mice [2]; 110th day after birth, 5 mg/kg): 0.1±0.3; Beam balance test score (G1H-G93A transgenic mice [2]; 115th day after birth, 5 mg/kg): 0.7±0.8; Beam balance test score (G1H-G93A transgenic mice [2]; 120th day after birth, 5 mg/kg): 1.4±0.7; Beam balance test score (G1H-G93A transgenic mice [2]; 125th day after birth): 2.0 ± 0.0; Beam balance test score (G1H-G93A transgenic mice [2]; 130th day after birth): 2.0 ± 0.0; Beam balance test score (G1H-G93A transgenic mice [2]; 135th day after birth): 2.0 ± 0.0; Beam balance test score (G1H-G93A transgenic mice [2]; 140th day after birth): 2.0 ± 0.0; Beam balance test score (G1H-G93A transgenic mice [2]; [3]): 2.0±0.0
CC(C)(C)COc1ccc(-n2cc(C(=O)O)cn2)cc1C#N [compound (a), 1-[3-cyano-4-(2,2-dimethylpropoxy)phenyl]-1H-pyrazole-4-carboxylic acid]	0.0±0.0	0.0±0.0	0.0±0.0	0.0±0.0	0.0±0.0	0.0±0.0	0.0±0.0	0.0±0.0	significant effects	0.3±0.7	1.2±1.3	2.2±0.9	3.0 ± 0.0	3.0 ± 0.0	3.0 ± 0.0	0.0±0.0	0.0±0.0	0.0±0.0	0.0±0.0	0.0±0.0	Rotarod test score (G1H-G93A transgenic mice [1]; 125th day after birth, 5 mg/kg): 2.7±0.5; Rotarod test score (G1H-G93A transgenic mice [1]; [4]): 3.0±0.0; Beam balance test score (G1H-G93A transgenic mice [2]; 95th day after birth, 5 mg/kg): 0.0±0.0; Beam balance test score (G1H-G93A transgenic mice [2]; 100th day after birth, 5 mg/kg): 0.0±0.0; Beam balance test score (G1H-G93A transgenic mice [2]; 105th day after birth, 5 mg/kg): 0.0±0.0; Beam balance test score (G1H-G93A transgenic mice [2]; 110th day after birth, 5 mg/kg): 0.1±0.3; Beam balance test score (G1H-G93A transgenic mice [2]; 115th day after birth, 5 mg/kg): 0.7±0.8; Beam balance test score (G1H-G93A transgenic mice [2]; 120th day after birth, 5 mg/kg): 1.2±0.9; Beam balance test score (G1H-G93A transgenic mice [2]; 125th day after birth, 5 mg/kg): 1.7±0.5; Beam balance test score (G1H-G93A transgenic mice [2]; 130th day after birth): 2.0 ± 0.0; Beam balance test score (G1H-G93A transgenic mice [2]; 135th day after birth): 2.0 ± 0.0; Beam balance test score (G1H-G93A transgenic mice [2]; 140th day after birth): 2.0 ± 0.0; Beam balance test score (G1H-G93A transgenic mice [2]; [4]): 2.0±0.0
N#Cc1cc(-c2n[nH]c(-c3ccncc3)n2)ccn1 [compound (b), 4-(5-pyridin-4-yl-1H-[1,2,4]triazol-3-yl)pyridine-2-carbonitrile]	0.0±0.0	0.0±0.0	0.0±0.0	0.0±0.0	0.0±0.0	0.0±0.0	0.0±0.0	0.0±0.0	significant effects	0.5±0.7	1.3±1.1	2.5±0.5	3.0 ± 0.0	3.0 ± 0.0	3.0 ± 0.0	0.0±0.0	0.0±0.0	0.0±0.0	0.0±0.0	0.0±0.0	Rotarod test score (G1H-G93A transgenic mice [1]; 125th day after birth): 3.0 ± 0.0; Rotarod test score (G1H-G93A transgenic mice [1]; [3]): 3.0±0.0; Beam balance test score (G1H-G93A transgenic mice [2]; 95th day after birth, 5 mg/kg): 0.0±0.0; Beam balance test score (G1H-G93A transgenic mice [2]; 100th day after birth, 5 mg/kg): 0.0±0.0; Beam balance test score (G1H-G93A transgenic mice [2]; 105th day after birth, 5 mg/kg): 0.0±0.0; Beam balance test score (G1H-G93A transgenic mice [2]; 110th day after birth, 5 mg/kg): 0.1±0.3; Beam balance test score (G1H-G93A transgenic mice [2]; 115th day after birth, 5 mg/kg): 0.6±0.7; Beam balance test score (G1H-G93A transgenic mice [2]; 120th day after birth, 5 mg/kg): 1.5±0.5; Beam balance test score (G1H-G93A transgenic mice [2]; 125th day after birth): 2.0 ± 0.0; Beam balance test score (G1H-G93A transgenic mice [2]; 130th day after birth): 2.0 ± 0.0; Beam balance test score (G1H-G93A transgenic mice [2]; 135th day after birth): 2.0 ± 0.0; Beam balance test score (G1H-G93A transgenic mice [2]; 140th day after birth): 2.0 ± 0.0; Beam balance test score (G1H-G93A transgenic mice [2]; [3]): 2.0±0.0
